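Compound exposure: 48 hours, 5 concentrations, 96-well plates. At the GI50, growth is halved.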 The source made the active and inactive calls. Rule as the data show it: active = GI50 up to about 1.1 µM and inactive = higher.
What was measured:
Test in all cases: DTP human tumour cell line panel, 48 h
MDA-N = system: MDA-N
UO-31 = system: UO-31
HOP-92 = system: HOP-92
SW-620 = system: SW-620
PC-3 = system: PC-3
HOP-62 = system: HOP-62
A498 = system: A498
SF-539 = system: SF-539
K562 = system: K562
SR = system: SR
HT-29 = system: HT-29
MCF7 = system: MCF7
Malme-3M = system: Malme-3M
IGROV-1 = system: IGROV-1
SK-MEL-2 = system: SK-MEL-2
M14 = system: M14
MDA-MB-231 = system: MDA-MB-231
CCRF-CEM = system: CCRF-CEM
NCI-H226 = system: NCI-H226

Compound | GI50 (MDA-N) | GI50 (UO-31) | GI50 (HOP-92) | GI50 (SW-620) | GI50 (PC-3) | GI50 (HOP-62) | GI50 (A498) | GI50 (SF-539) | GI50 (K562) | GI50 (SR) | GI50 (HT-29) | GI50 (MCF7) | GI50 (Malme-3M) | GI50 (IGROV-1) | GI50 (SK-MEL-2) | GI50 (M14) | GI50 (MDA-MB-231) | GI50 (CCRF-CEM) | GI50 (NCI-H226)
CC(C)Cn1cnc2c(SCc3ccc(Cl)cc3Cl)nc(N)nc21 | 41.1 µM (inactive) | 23.3 µM (inactive) | 26.2 µM (inactive) | 25.3 µM (inactive) | 16.5 µM (inactive) | 49.7 µM (inactive) | 16.1 µM (inactive) | 15.8 µM (inactive) | 11.7 µM (inactive) | 4.38 µM (inactive) | 27 µM (inactive) | 18.3 µM (inactive) | 26.4 µM (inactive) | 48.8 µM (inactive) | 32.4 µM (inactive) | 32.4 µM (inactive) | 39.1 µM (inactive) | – | –
CNc1c2cccc(C)c2nc2c(C(=O)NCCN(C)C)cccc12 | 0.0841 µM (active) | 0.2 µM (active) | 0.122 µM (active) | < 0.0288 µM (active) | 0.158 µM (active) | 0.164 µM (active) | 0.213 µM (active) | – | 0.0249 µM (active) | < 0.0288 µM (active) | < 0.0197 µM (active) | < 0.045 µM (active) | 0.169 µM (active) | 0.0483 µM (active) | 0.309 µM (active) | 0.207 µM (active) | < 0.0498 µM (active) | 0.0374 µM (active) | 0.116 µM (active)
CC(=O)NC(Cc1c[nH]c2ccccc12)C(=O)O (stereo not drawn) | > 100 µM (inactive) | > 100 µM (inactive) | > 100 µM (inactive) | > 100 µM (inactive) | > 100 µM (inactive) | > 100 µM (inactive) | > 100 µM (inactive) | – | > 100 µM (inactive) | > 100 µM (inactive) | > 100 µM (inactive) | > 100 µM (inactive) | > 100 µM (inactive) | > 100 µM (inactive) | > 100 µM (inactive) | > 100 µM (inactive) | > 100 µM (inactive) | > 100 µM (inactive) | > 100 µM (inactive)
CN(CCNCc1cn(C)c2c1ccc1ccccc12)CCNCc1cn(C)c2c1ccc1ccccc12 | 1.77 µM (inactive) | 1.39 µM (inactive) | 1.6 µM (inactive) | 1.35 µM (inactive) | 1.47 µM (inactive) | 1.79 µM (inactive) | 0.188 µM (active) | 1.77 µM (inactive) | 0.458 µM (active) | 1.04 µM (active) | 1.61 µM (inactive) | 0.333 µM (active) | 1.87 µM (inactive) | 1.6 µM (inactive) | 1.79 µM (inactive) | 0.726 µM (active) | 1.79 µM (inactive) | 0.711 µM (active) | –
O=C(CN1CCOCC1)c1ccc2c(c1)oc(=O)n2CCN1CCCC1 | > 100 µM (inactive) | – | – | > 100 µM (inactive) | > 100 µM (inactive) | > 100 µM (inactive) | > 100 µM (inactive) | > 100 µM (inactive) | > 100 µM (inactive) | > 100 µM (inactive) | > 100 µM (inactive) | > 100 µM (inactive) | > 100 µM (inactive) | > 100 µM (inactive) | > 100 µM (inactive) | > 100 µM (inactive) | > 100 µM (inactive) | > 100 µM (inactive) | > 100 µM (inactive)

Reference: ChEMBL document CHEMBL1201862, “PubChem BioAssay data set” (2004)
